Measurements from publication PMC6120666 (The EMBO Journal, 2018).

What was measured:
[1] = test system: U2OS/NOD2, THP1, RAW264.7 and HEKBlue cells; assay: CellTiter-Glo viability assay; type: cell-based; details: U2OS/NOD2, THP1, RAW264.7, HEKBlue; 24 h; up to 1 µM
Description: Cell viability was determined using CellTiter‐Glo assay (Promega). […] Kinase activities were determined using ADPGlo assay (Promega). • Structure of the active conformation of RIPK2 kinase domain in complex with AMP‐PNP (PDB ID: 5AR3). Figure depicts locations of the adenine and deep pockets. […] Key residues discussed in the text are shown as sticks (Lys/Glu Glu‐in bond—bottom left, catalytic Asp residues (Asp146/Asp164)—bottom right, R‐spine—right). P‐loop of CSLP18 structure is shown in yellow. Structured segment of activation segment (AS) observed in active conformation structures is shown in red. • Structure of RIPK2 kinase domain (gray ribbons) in complex with CSLP18 (orange) (PDB ID 6FU5). Sticks are shown for residues in the vicinity of the cavity surrounding the key inhibitor position R1. A 2Fo‐Fc electron density map contoured at 1 sigma is shown for the inhibitor and the residues lining the key region around inhibitor R^1 position. • Molecular docking model of RIPK2 kinase domain in complex with CSLP37 (yellow) based on RIPK2/CSLP18 structure (Fig 3D). […]
GST-BIR2-XIAP as indicated. Intensity quantification of SPOTs was performed using ImageJ software (Schneider et al., 2012). […]
for cell death) or vehicle for 24h. Viability was determined using the CellTiter-Glo® luminescent cell […]

recombinant RIPK1 = biological target: T1, recombinant RIPK1 (Homo sapiens, UniProt Q13546); assay: RIPK1 ADPGlo kinase assay; type: biochemical; details: concentrations up to 1 µM
T1 construct: made in house
T1 sequence (Q13546 whole entry, species assumed): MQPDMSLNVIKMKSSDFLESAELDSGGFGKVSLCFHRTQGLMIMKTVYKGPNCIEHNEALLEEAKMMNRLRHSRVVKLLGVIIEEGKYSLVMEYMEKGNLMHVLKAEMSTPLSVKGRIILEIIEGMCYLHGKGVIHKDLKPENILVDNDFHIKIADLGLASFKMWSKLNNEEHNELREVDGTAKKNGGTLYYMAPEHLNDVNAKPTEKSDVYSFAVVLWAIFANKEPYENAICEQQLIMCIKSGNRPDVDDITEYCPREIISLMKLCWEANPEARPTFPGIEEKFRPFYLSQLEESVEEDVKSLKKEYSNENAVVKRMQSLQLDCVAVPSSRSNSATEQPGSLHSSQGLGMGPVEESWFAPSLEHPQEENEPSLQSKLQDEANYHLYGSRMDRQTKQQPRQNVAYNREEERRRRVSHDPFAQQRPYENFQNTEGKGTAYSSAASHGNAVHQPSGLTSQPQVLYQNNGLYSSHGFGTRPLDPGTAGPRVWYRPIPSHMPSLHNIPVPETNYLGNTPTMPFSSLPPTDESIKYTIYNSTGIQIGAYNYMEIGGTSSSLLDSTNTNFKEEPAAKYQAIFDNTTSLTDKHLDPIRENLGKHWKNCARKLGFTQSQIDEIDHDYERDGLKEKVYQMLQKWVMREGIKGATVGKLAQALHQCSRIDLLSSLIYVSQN
Description: (§1) Cell viability was determined using CellTiter‐Glo assay (Promega). […] Kinase activities were determined using ADPGlo assay (Promega). • Structure of the active conformation of RIPK2 kinase domain in complex with AMP‐PNP (PDB ID: 5AR3). Figure depicts locations of the adenine and deep pockets. […] Key residues discussed in the text are shown as sticks (Lys/Glu Glu‐in bond—bottom left, catalytic Asp residues (Asp146/Asp164)—bottom right, R‐spine—right). P‐loop of CSLP18 structure is shown in yellow. Structured segment of activation segment (AS) observed in active conformation structures is shown in red. • Structure of RIPK2 kinase domain (gray ribbons) in complex with CSLP18 (orange) (PDB ID 6FU5). Sticks are shown for residues in the vicinity of the cavity surrounding the key inhibitor position R1. A 2Fo‐Fc electron density map contoured at 1 sigma is shown for the inhibitor and the residues lining the key region around inhibitor R^1 position. • Molecular docking model of RIPK2 kinase domain in complex with CSLP37 (yellow) based on RIPK2/CSLP18 structure (Fig 3D). […] Data information: Data in (A–C, G) represent the mean ± SEM of three independent experiments. **P < 0.01. Two‐way ANOVA was used to determine statistical significance. […]

recombinant RIPK2 kinase = biological target: T2, recombinant RIPK2 kinase (Homo sapiens, UniProt O43353); assay: RIPK2 ADPGlo in vitro kinase assay; type: biochemical; details: average ± SD of at least three titrations, read-out: IC50, In vitro kinase, RIPK2 ADPGIo
T2 construct: made in house
T2 sequence (O43353 whole entry): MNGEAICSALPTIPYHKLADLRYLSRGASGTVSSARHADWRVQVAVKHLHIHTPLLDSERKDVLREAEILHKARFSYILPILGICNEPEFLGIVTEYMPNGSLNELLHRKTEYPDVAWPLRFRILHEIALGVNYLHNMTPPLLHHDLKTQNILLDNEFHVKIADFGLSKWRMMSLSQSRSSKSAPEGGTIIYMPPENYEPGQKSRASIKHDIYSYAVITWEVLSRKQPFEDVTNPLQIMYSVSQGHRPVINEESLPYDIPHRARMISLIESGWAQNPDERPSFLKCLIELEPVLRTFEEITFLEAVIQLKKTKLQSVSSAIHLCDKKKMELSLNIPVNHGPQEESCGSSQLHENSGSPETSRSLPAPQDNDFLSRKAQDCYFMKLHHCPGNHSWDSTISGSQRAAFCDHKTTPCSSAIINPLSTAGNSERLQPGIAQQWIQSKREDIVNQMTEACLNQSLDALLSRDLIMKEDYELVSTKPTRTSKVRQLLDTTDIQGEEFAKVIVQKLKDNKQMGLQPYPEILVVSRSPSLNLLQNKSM
Text: The BIR2 domains of XIAP and cIAP1 were cloned into the pGEX‐6P1 vector and were expressed in E. coli (BL21) cells as a fusion protein with N‐terminal 6xHis (XIAP BIR2 only) and GST tags. Protein expression was induced with IPTG, and cells were lysed using BugBuster protein extraction reagent (#70921, Merck Millipore) according to manufacturer's instructions. Proteins were purified with the FPLC protein purification system ÄKTA PrimePlus (GE Healthcare Life Sciences) using HisTrap FF column purification followed by gel filtration (HiLoad 26/600 Superdex 75 pg (GE Healthcare Life Sciences)). Collected fractions were stored at −80°C and used for probing of peptide array membranes. Expression and purification of recombinant RIPK1‐3 was performed as previously described (Canning et al, 2015; Najjar et al, 2015). RIPK1‐3 ADPGlo kinase assays using 20 ng/well protein were performed for 2 h at room temperature also as previously described (Canning et al, 2015; Najjar et al, 2015).

C57Bl6/J mice = assay: Inhibition of MDP-elicited TNF release in vivo; details: 10 mg/kg i.p. 30 min before MDP 100 μg/mouse i.p., blood after 4 h
Description: Female 6‐ to 8‐week‐old C57Bl6/J mice (Jackson labs) were administered with the compounds i.p. 30 min prior to the i.p. injections of MDP as previously described (Nachbur et al, 2015). After 4 h, blood was collected by cardiac puncture. 100 μl of serum (diluted twofold) per animal was analyzed using anti‐mouse TNF ELISA (ThermoFisher Scientific).
All mouse experiments were approved by the Tufts University Committee on the Use and Care of Animals and performed according to accepted veterinary standards. Female 6-8-week-old C57Bl6/J mice (Jackson labs) were used for the experiments. Experiments were performed as previously described (Nachbur et al., 2015). Tested compounds were formulated in 6% Captisol formulation, pH 4.0 (100 μl/mouse, 10 mg/kg, Ligand Pharmaceuticals, San Diego, CA). MDP (Bachem, King of Prussia, PA) was dissolved in saline (100 μl/mouse, 100 μg/mouse). Mice were administered with the drugs i.p. 30 min prior to the i.p. injections of MDP. After 4 h, blood was collected by cardiac puncture.
100 μl of serum (diluted 2-fold) per animal was analyzed using anti-mouse TNF ELISA (ThermoFisher […]
Expression and purification of RIPK2 for X-ray crystallography […]

recombinant RIPK3 = biological target: T3, recombinant RIPK3 (Homo sapiens, UniProt Q9Y572); assay: RIPK3 ADPGlo kinase assay; type: biochemical; details: concentrations up to 1 µM
T3 construct: made in house
T3 sequence (Q9Y572 whole entry, species assumed): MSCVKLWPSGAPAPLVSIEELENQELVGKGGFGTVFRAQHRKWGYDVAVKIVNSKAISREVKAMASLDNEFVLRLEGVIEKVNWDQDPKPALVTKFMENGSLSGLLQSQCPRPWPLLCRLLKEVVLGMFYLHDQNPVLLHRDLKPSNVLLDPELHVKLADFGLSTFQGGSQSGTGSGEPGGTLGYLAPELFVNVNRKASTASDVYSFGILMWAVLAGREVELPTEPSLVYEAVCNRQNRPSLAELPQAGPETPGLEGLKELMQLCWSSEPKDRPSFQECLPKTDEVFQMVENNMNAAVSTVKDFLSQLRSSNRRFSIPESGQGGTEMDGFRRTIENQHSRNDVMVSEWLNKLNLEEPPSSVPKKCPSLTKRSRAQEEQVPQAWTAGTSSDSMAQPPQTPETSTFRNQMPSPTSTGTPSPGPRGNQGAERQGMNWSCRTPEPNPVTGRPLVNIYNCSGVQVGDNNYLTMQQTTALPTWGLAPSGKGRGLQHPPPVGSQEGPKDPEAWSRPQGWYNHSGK
Description: as §1

| SMILES | toxicity in the cell lines used [1] | inhibitory activity against RIPK1 (recombinant RIPK1) | IC50 (recombinant RIPK2 kinase) | MDP-elicited serum TNF levels (C57Bl6/J mice) | inhibitory activity against RIPK3 (recombinant RIPK3) |
| --- | --- | --- | --- | --- | --- |
| CCCS(=O)(=O)Nc1cc(-c2cc(-c3ccc(N4CCNCC4)cc3)cnc2N)cc(F)c1OC [CSLP37] | did not have measurable toxicity | no inhibitory activity | 16.3 ± 4.6 nM | potently reduced | no inhibitory activity |
| CCCS(=O)(=O)Nc1cc(-c2cc(-c3ccc(N4CCNCC4)cc3)cnc2N)cc(OC)c1OC [CSLP43] | did not have measurable toxicity | no inhibitory activity | 19.9 ± 0.8 nM | – | no inhibitory activity |
| CCCS(=O)(=O)Nc1cc(-c2cc(-c3ccc(N4CCNCC4)cc3)cnc2N)ccc1O [CSLP48] | – | – | 53.5 ± 5.7 nM | – | – |
| COc1cc(-c2cc(-c3ccc(N4CCNCC4)cc3)cnc2N)cc(F)c1OC [CSLP55] | – | – | 39.1 ± 3.9 nM | – | – |
| Cc1ccc(-c2nn(C(C)(C)CNC(=O)c3ccncc3)c3ncnc(N)c23)cc1 [WEHI‐345, reference compound] | – | – | 37.3 ± 1.3 nM | partial reduction | – |
